Reference: patent US20250122174A1 (Shenzhen Yuanli Shenwan Innovative Medicine Co., Ltd., priority 2022, published 2025)

The compounds below were run against HPK1 (Homo sapiens (Human), UniProt Q92918) (assay: HPK1 Inhibition Assay (ADP-Glo kinase assay)). Conditions: ATP 10 μM.
Type: biochemical
How it was run: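 ADP-Glo luminescence read-out after 1 h room-temperature kinase reaction with 10 μM ATP and 0.1 μg/ml MBP. Recombinant human HPK1 at 7.5 ng/μl; buffer 40 mM Tris pH 7.5, 20 mM MgCl2. Compounds serially diluted 5-fold over 10 points from 10 mM DMSO stock.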

Chain of HPK1 (Q92918 1-346 limits assumed): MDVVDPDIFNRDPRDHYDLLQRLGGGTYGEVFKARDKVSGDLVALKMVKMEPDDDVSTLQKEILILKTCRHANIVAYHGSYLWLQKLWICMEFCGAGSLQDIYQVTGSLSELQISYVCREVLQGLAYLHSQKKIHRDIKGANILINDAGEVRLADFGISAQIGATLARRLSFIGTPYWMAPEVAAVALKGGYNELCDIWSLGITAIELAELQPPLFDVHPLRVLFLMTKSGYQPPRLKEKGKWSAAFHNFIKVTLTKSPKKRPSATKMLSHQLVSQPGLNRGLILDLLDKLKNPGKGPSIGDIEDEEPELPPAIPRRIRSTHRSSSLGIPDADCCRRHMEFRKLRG

IC50, < 100 nM:
C[C@H]1CN(c2c(NC(=O)c3ccc(=O)n(-c4c(F)cccc4F)n3)ccc3c2cnn3[C@H]2CCOC2)C[C@@H]1N [Example 260, N-(4-((3R,4S)-3-amino-4-methylpyrrolidin-1-yl)-1-((S)-tetrahydrofuran-3-yl)-1H-indazol-5-yl)-1-(2,6-difluorophenyl)-6-oxo-1,6-dihydropyridazine-3-carboxamide]
C[C@@H]1CN(c2c(NC(=O)c3ccc(=O)n(-c4c(F)cccc4F)n3)ccc3c2cnn3C2CCOCC2)C[C@@H]1N [Example 261, N-(4-((3R,4R)-3-amino-4-methylpyrrolidin-1-yl)-1-(tetrahydro-2H-pyran-4-yl)-1H-indazol-5-yl)-1-(2,6-difluorophenyl)-6-oxo-1,6-dihydropyridazine-3-carboxamide]
C[C@@H]1CN(c2c(NC(=O)c3ccc(=O)n(-c4c(F)cccc4F)n3)ccc3c2cnn3[C@@H]2CCOC2)C[C@@H]1N [Example 262, N-(4-((3R,4R)-3-amino-4-methylpyrrolidin-1-yl)-1-((R)-tetrahydrofuran-3-yl)-1H-indazol-5-yl)-1-(2,6-difluorophenyl)-6-oxo-1,6-dihydropyridazine-3-carboxamide]
N[C@@H]1CCCN(c2c(NC(=O)c3ccc(=O)n(-c4c(F)cccc4F)n3)ccc3c2cnn3[C@H]2CCOC2)C1 [Example 263, N-(4-((R)-3-aminopiperidin-1-yl)-1-((S)-tetrahydrofuran-3-yl)-1H-indazol-5-yl)-1-(2,6-difluorophenyl)-6-oxo-1,6-dihydropyridazine-3-carboxamide]
N[C@@H]1CCCN(c2c(NC(=O)c3ccc(=O)n(-c4c(F)cccc4F)n3)ccc3c2cnn3[C@@H]2CCOC2)C1 [Example 264, N-(4-((R)-3-aminopiperidin-1-yl)-1-((R)-tetrahydrofuran-3-yl)-1H-indazol-5-yl)-1-(2,6-difluorophenyl)-6-oxo-1,6-dihydropyridazine-3-carboxamide]
NC1CCN(c2c(NC(=O)c3ccc(=O)n(-c4c(F)cccc4F)n3)ccc3c2cnn3[C@@H]2CCOC2)CC1 [Example 265, (R)-N-(4-(4-aminopiperidin-1-yl)-1-(tetrahydrofuran-3-yl)-1H-indazol-5-yl)-1-(2,6-difluorophenyl)-6-oxo-1,6-dihydropyridazine-3-carboxamide]
NC1CCN(c2c(NC(=O)c3ccc(=O)n(-c4c(F)cccc4F)n3)ccc3c2cnn3[C@H]2CCOC2)CC1 [Example 266, (S)-N-(4-(4-aminopiperidin-1-yl)-1-(tetrahydrofuran-3-yl)-1H-indazol-5-yl)-1-(2,6-difluorophenyl)-6-oxo-1,6-dihydropyridazine-3-carboxamide]
CC1(C)CN(c2c(NC(=O)c3ccc(=O)n(-c4c(F)cccc4F)n3)ccc3c2cnn3[C@@H]2CCOC2)C[C@@H]1N [Example 267, N-(4-((R)-4-amino-3,3-dimethylpyrrolidin-1-yl)-1-((R)-tetrahydrofuran-3-yl)-1H-indazol-5-yl)-1-(2,6-difluorophenyl)-6-oxo-1,6-dihydropyridazine-3-carboxamide]
CC1(C)CN(c2c(NC(=O)c3ccc(=O)n(-c4c(F)cccc4F)n3)ccc3c2cnn3[C@@H]2CCOC2)C[C@H]1N [Example 268, N-(4-((S)-4-amino-3,3-dimethylpyrrolidin-1-yl)-1-((R)-tetrahydrofuran-3-yl)-1H-indazol-5-yl)-1-(2,6-difluorophenyl)-6-oxo-1,6-dihydropyridazine-3-carboxamide]
CC1(C)CN(c2c(NC(=O)c3ccc(=O)n(-c4c(F)cccc4F)n3)ccc3c2cnn3[C@H]2CCOC2)C[C@@H]1N [Example 269, N-(4-((R)-4-amino-3,3-dimethylpyrrolidin-1-yl)-1-((S)-tetrahydrofuran-3-yl)-1H-indazol-5-yl)-1-(2,6-difluorophenyl)-6-oxo-1,6-dihydropyridazine-3-carboxamide]
CC1(C)CN(c2c(NC(=O)c3ccc(=O)n(-c4c(F)cccc4F)n3)ccc3c2cnn3[C@H]2CCOC2)C[C@H]1N [Example 270, N-(4-((S)-4-amino-3,3-dimethylpyrrolidin-1-yl)-1-((S)-tetrahydrofuran-3-yl)-1H-indazol-5-yl)-1-(2,6-difluorophenyl)-6-oxo-1,6-dihydropyridazine-3-carboxamide]
N[C@H]1CN(c2c(NC(=O)c3ccc(=O)n(-c4c(F)cccc4F)n3)ccc3c2cnn3[C@H]2CCCOC2)CC12CC2 [Example 271, N-(4-((R)-7-amino-5-azaspiro[2.4]heptan-5-yl)-1-((S)-tetrahydro-2H-pyran-3-yl)-1H-indazol-5-yl)-1-(2,6-difluorophenyl)-6-oxo-1,6-dihydropyridazine-3-carboxamide]
N[C@H]1CN(c2c(NC(=O)c3ccc(=O)n(-c4c(F)cccc4F)n3)ccc3c2cnn3[C@@H]2CCCOC2)CC12CC2 [Example 272, N-(4-((R)-7-amino-5-azaspiro[2.4]heptan-5-yl)-1-((R)-tetrahydro-2H-pyran-3-yl)-1H-indazol-5-yl)-1-(2,6-difluorophenyl)-6-oxo-1,6-dihydropyridazine-3-carboxamide]
C[C@H]1CN(c2c(NC(=O)c3ccc(=O)n(-c4c(F)cccc4F)n3)ccc3c2cnn3C2CCOCC2)C[C@@H]1N [Example 273, N-(4-((3R,4S)-3-amino-4-methylpyrrolidin-1-yl)-1-(tetrahydro-2H-pyran-4-yl)-1H-indazol-5-yl)-1-(2,6-difluorophenyl)-6-oxo-1,6-dihydropyridazine-3-carboxamide]
N[C@@H]1CCN(c2c(NC(=O)c3ccc(=O)n(-c4c(F)cccc4F)n3)ccc3c2cnn3C2CCOCC2)C1 [Example 274, N-[4-[(3R)-3-aminopyrrolidin-1-yl]-1-tetrahydropyran-4-yl-indazol-5-yl]-1-(2,6-difluorophenyl)-6-oxo-pyridazine-3-carboxamid]
[2H]C([2H])([2H])C([2H])(n1ncc2c(N3C[C@@H](C)[C@@H](N)C3)c(NC(=O)c3ccc(=O)n(-c4c(F)cccc4F)n3)ccc21)C([2H])([2H])[2H] [Example 275, N-(4-((3R,4R)-3-amino-4-methylpyrrolidin-1-yl)-1-(propan-2-yl-d7)-1H-indazol-5-yl)-1-(2,6-difluorophenyl)-6-oxo-1,6-dihydropyridazine-3-carboxamide]
[2H]C([2H])([2H])C([2H])(n1ncc2c(N3C[C@H](N)C4(CC4)C3)c(NC(=O)c3ccc(=O)n(-c4c(F)cccc4F)n3)ccc21)C([2H])([2H])[2H] [Example 276, (R)-N-(4-(7-amino-5-azaspiro[2.4]heptan-5-yl)-1-(propan-2-yl-d7)-1H-indazol-5-yl)-1-(2,6-difluorophenyl)-6-oxo-1,6-dihydropyridazine-3-carboxamide]
[2H]C([2H])([2H])C(n1ncc2c(N3C[C@H](N)C4(CC4)C3)c(NC(=O)c3ccc(=O)n(-c4c(F)cccc4F)n3)ccc21)C([2H])([2H])[2H] [Example 277, (R)-N-(4-(7-amino-5-azaspiro[2.4]heptan-5-yl)-1-(propan-2-yl-1,1,1,3,3,3-d6)-1H-indazol-5-yl)-1-(2,6-difluorophenyl)-6-oxo-1,6-dihydropyridazine-3-carboxamide]
